For series [1], the target named is T1, Caspase-like proteasome activity in HeLa S3 cell lysates (Homo sapiens, UniProt P28072).
T1 construct: proteasomes were extracted in 0.5% NP40 buffer; endogenous in cells; host or cells: HeLa S3
Description: Proteasome activity assay, caspase-like. In kind it is biochemical. The note with it: read-out: Inhibition (IC50) Caspase-like. As for the experimental part: (§1) Exponentially growing HeLa S3 cells were plated on 96-well plates. After overnight incubation, the cells were treated with different concentrations of drugs for 6 hours or left untreated (control). At the end of 6 hours, proteasomes were extracted in 0.5% NP40 buffer, and equal amounts of samples were incubated with 25 μM of fluorogenic substrates purchased from Boston Biochem (Cambridge Mass.). (LRR-specific for trypsin-like activity, LLE-specific for caspase-like activity and SUVY-specific for chymotrypsin like activity) in black-bottom 96-well plates at 37° C. Fluorescence was monitored every 5 min at the wavelength of 360 nm (excitation) and 480 nm (emission). Chymotrypsin activity was also determined by a kit-based method (similar to described above) purchased from Caymen Biochem (Ann Arbor, Mich.), using a fluorogenic substrate specific for chymotrypsin activity.
(§2) Analysis of proteasome activity in HeLa S3 cell lysates treated with various compounds (FIG. 10). VR-23 inhibits proteasome activity. 20S proteasome activity was inhibited by 1 μM VR-23. MG132 and EGCG, known proteasome inhibitors, were used as positive controls. The PC positive control is cell lysates prepared from Jurkat cells with a high proteasome activity. “Asynchr” denote asynchronous HeLa S3 cells grown in the absence of VR-23.

A further series deals with MCF7. Description: SRB antiproliferative assay, MCF7. In kind it is cell-based, human. The settings on record: Homo sapiens. In outline:
(§3)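 Cells (5,000-10,000 per well) exposed to seven drug concentrations for 48 h, then TCA-fixed and stained with 0.4% SRB. Growth computed as (Ti−Tz)/(C−Tz)×100 against time-zero and untreated controls. GI50 taken from variable-slope sigmoidal fit.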

The test system of another series is MCF7 cells. The experiment in a line: Clonogenic assay using MCF7 cells. The note with it: for Average colony number: series with non-treated control 34. Type of series: cell-based, human. As for the experimental part:
The clonogenic assay was carried out as described in Santi and Lee (2011).^11
Antiproliferative activity of VR-23 was evaluated on a variety of different cell lines, alone or in combination with Bortezomib, by way of SRBSRB or clonogenic assays.

The next series concerns Jurkat lymphoma cells. The experiment in a line: Flow cytometry, apoptosis of Jurkat lymphoma cells. Type of series: cell-based. The settings on record: 0.75 μM VR-23, 48 hours. As for the experimental part: Asynchronously growing Jurkat lymphoma cells were incubated for 48 hours in the absence (sham control) or presence of Bortezomib alone or in combination with VR-23.

In the next series the test system is MDA-MB468. Description: SRB antiproliferative assay, MDA-MB468. In kind it is cell-based, human. The settings on record: Homo sapiens. In outline:
as §3

Series [2] concerns the target T2, Chymotrypsin-like proteasome activity in HeLa S3 cell lysates (Homo sapiens, UniProt P28074).
T2 construct: proteasomes were extracted in 0.5% NP40 buffer; endogenous in cells; host or cells: HeLa S3
Description: Proteasome activity assay, chymotrypsin-like. In kind it is biochemical. The settings on record: read-out: Inhibition (IC50) Chymotrypsin-like. As to the method: as §1, §2

A further series deals with 20S proteasome. The experiment in a line: 20S proteasome activity in HeLa S3 cell lysates. The settings on record: 1 μM VR-23. In kind it is biochemical. As to the method: as §1, §2
A further series is described as follows: Body weight of CD-1 mice. The settings on record: 25 mg/kg/week VR-23 i.p. In kind it is in vivo.

“Also recorded” adds a separate entry of the source.

Take `O=[N+]([O-])c1ccc(S(=O)(=O)N2CCN(c3ccnc4cc(Cl)ccc34)CC2)c([N+](=O)[O-])c1` [Compound 1, 7-Chloro-4-(4-(2,4-dinitrophenylsulfonyl)piperazin-1-yl)quinoline]: the half-maximal inhibitory concentration (IC50) in series [1] was 3000 nM; in the series on MCF7 (MCF7, SRB) it was 2300 ± 800 nM; in the series on MCF7 cells (Homo sapiens, MCF7, read-out: IC50 MCF7), 1200 ± 500 nM; with MDA-MB468 (MDA-MB-468) it was 700 ± 100 nM; in series [2], 100 nM. The GI50 in the series on MCF7 (MCF7, 48 h, read-out: GI50 MCF7) amounted to 2320 ± 800 nM; in the series with MDA-MB468 (MDA-MB-468, 48 h) it was 700 ± 100 nM. Also, the “Survival (% of the control)” value in the series on MCF7 cells (1.5 μM of VR-23 alone) is on record as 50.3%; in the series with MCF7 cells (3.1 μM of VR-23 alone), 46.8%. The figures for the Average colony number with MCF7 cells (VR-23 at 0.37 μM) and in the series with MCF7 cells (VR-23 at 0.75 μM) were 25 and 27, respectively. The “Cell killing by apoptosis” value in the series on Jurkat lymphoma cells is given as “neither 6 nM of Bortezomib (FIG. 4, ii) nor 0.75 μM of VR-23 (FIG. 4, iv) induced substantial cell killing by apoptosis”. Moreover, in the series on 20S proteasome, the 20S proteasome activity entry is reported as “inhibited; also recorded: almost completely inhibits”. For the same molecule, the “Ill effects by changes in body weights” value in “Body weight of CD-1 mice” is given as “did not show any ill effects”.

These data come from patent publication US9975852B2, “Quinoline sulfonyl derivatives and uses thereof” (Health Sciences North Research Institute, priority 2013, dated 2018).
